# Results: article PMC9026428, “New Peptide Based Fluconazole Conjugates with Expanded Molecular Targets” (Pharmaceutics, 2022)
# Read-outs that look alike come from different tables or passages of the source. Non-standard residues stand in square brackets, D forms with d. Residues, ends and D or L forms follow the SMILES beside them. *: point of attachment. X1 = O=C(CCCC(=O)*)OC(Cn1cncn1)(Cn1cncn1)c1ccc(F)cc1F; Nle = CCCC[C@H](N)C(=O)O
# What was measured:
# [1] = test system: Candida spp. strains tested; assay: Antifungal activity against the whole panel of strains tested; type: cell-based; conditions: panel of Table 2, 8–250 µM
# Protocol: Antifungal activity of the tested compounds against yeast cells was determined in 96-well plates as described in the CLSI document M27-A3 [39], with minor modifications (CLSI, 2008). Suspensions of the microorganisms were prepared by taking one loop of pure culture into sterile water and adjusting optical density to 0.1 at 660 nm wavelength and further 50-fold dilution in RPMI 1640 medium, resulting in cell concentration of approximately 2 × 10^4 CFU/mL [21]. Then, 100 μL of cells were added to the wells of a 96-well microtiter plate that contained 16–500 μM tested compounds and 16–500 μM of FLC or 0.2–62 μM AmB. The plates were incubated for 24 h at 37 °C. Each test was performed in triplicate. […] The MIC90 was defined as the lowest concentration of drug showing no visible growth; MIC50 was defined as the concentration that yielded at least 50% growth inhibition when compared with the growth control well.
# [2] = test system: Hs27 cells (human foreskin fibroblast cell line); assay: MTT cytotoxicity assay
# Protocol: (§1) The assessment of antifungal potential of synthesized agents was carried out using four reference strains (C. albicans ATCC 10231, C. albicans SC5314, C. glabrata DSM […] and C. krusei DSM […]) and six clinical isolates of fluconazole-resistant C. albicans that were provided by the Hospital of Medical University of Gdansk, Poland. Moreover, four C. albicans isolates, assigned as B3, B4, Gu4 and Gu5, were used for investigation whether the synthesized fluconazole derivatives were effectively removed from the yeast cells by the drug efflux transporters, as in the case of fluconazole. These strains were kindly provided by Prof. Joachim Morschhäuser from University of Würzburg (Würzburg, Germany). Strains Gu4 and B3 were fluconazole-sensitive isolates obtained from early infection episodes, while Gu5 and B4 were the corresponding fluconazole-resistant isolates obtained from later episodes in the same patients treated with fluconazole. The lack of susceptibility of the Gu5 strain to fluconazole was a consequence of overexpression of CDR1/2 genes encoding ABC transporters, whereas the resistance of B4 strain was caused by overexpression of the MDR1 gene encoding a membrane transport protein of the major facilitator superfamily (MFS). All of these Candida spp. strains were maintained on YPD agar plates (1% (w/v) yeast extract, 2% (w/v) peptone, 2% (w/v) glucose, 2% (w/v) agar) at 30 °C for 16–24 h. For all of the assays aimed at assessing the antifungal potential of the synthesized agents, the yeasts were cultivated at 37 °C in RPMI 1640 medium (with L-glutamine, without sodium bicarbonate, Sigma-Aldrich, Darmstadt, Germany)) buffered to a pH of 7.0 with 0.165 M morpholinepropanesulfonic acid (MOPS) buffer (Sigma-Aldrich). In this study, we used the human foreskin fibroblast cell line Hs27 (ATCC CRL 1634TM) and the human endothelial cell line HUVEC (C2519A), purchased from Lonza Group AG, (Basel, Switzerland). The Hs27 cells were maintained in cell media consisting of Dulbecco’s modified Eagles medium (DMEM), (Corning, Arizona, USA) with 10% fetal bovine serum (FBS), (Corning, Port Elizabeth, South Africa), 1% penicillin/streptomycin (Sigma-Aldrich Inc., Darmstadt, Germany), and 1% L-glutamine (Corning, Arizona, USA). The human endothelial cell line was maintained in cell media consisting of Endothelial Cell Growth Medium-2 Single Quots Kit (Lonza, USA). Both cell lines were cultured in an incubator at 37 °C and 5% CO2.
# (§2) Hs27 and HUVEC mammalian cell lines were cultured as mentioned above. Once cell lines were about 80% confluent, cells were counted by a hemacytometer (Hausser Scientific, Horsham, PA, USA) and plated in 96-well microtiter plates at concentrations of 4500 cells per well for Hs27 and 2000 cells per well for HUVEC. Cells were allowed to attach overnight. […] The final concentration of DMSO was ensured to be around 1% in all experiments. Cells were incubated with studied compounds for 72 h at 37 °C and 5% CO2. After incubation, 20 µL of MTT solution in PBS (4 mg/mL) was added to all wells and incubated further for 3 h at 37 °C. Formed formazan crystals were dissolved in 150 µL DMSO, and absorbance was measured using an Asys UVM340 multi-well plate reader at λ = 540 nm. Cytotoxicity was determined compared to drug-free control. All experiments were performed in biological triplicates.
# [3] = test system: Candida albicans Gu4; assay: microbe, parasite or virus in culture; conditions: 37 °C; for MIC50 / MIC90: C. albicans Gu4 (fluconazole-sensitive isolate), RPMI 1640/MOPS pH 7.0, 24 h, triplicate; for MIC50: at least 50% growth inhibition vs growth control; for MIC90: lowest concentration with no visible growth
# Protocol: as §1
# (§3) Antifungal activity of the tested compounds against yeast cells was determined in 96-well plates as described in the CLSI document M27-A3 [39], with minor modifications (CLSI, 2008). […] The plates were incubated for 24 h at 37 °C. Each test was performed in triplicate. The final concentration of DMSO was ensured to be around 1% in all experiments.
# (§4) For determination of minimum fungicidal concentrations (MFC), small aliquots of suspensions (around 10 μL) from each well were transferred using the pipette to YPD agar plates without inhibitors and incubated for 24 h at 37 °C.
# [4] = test system: Candida albicans B3; assay: microbe, parasite or virus in culture; conditions: 37 °C; for MIC50 / MIC90: C. albicans B3 (fluconazole-sensitive isolate), RPMI 1640/MOPS pH 7.0, 24 h, triplicate; for MIC50: at least 50% growth inhibition vs growth control; for MIC90: lowest concentration with no visible growth
# Protocol: as §1, §3, §4
# [5] = test system: Candida albicans SC 5314; assay: microbe, parasite or virus in culture; conditions: C. albicans SC 5314, 37 °C; for MIC50 / MIC90: RPMI 1640/MOPS pH 7.0, 24 h, triplicate; for MIC50: at least 50% growth inhibition vs growth control; for MIC90: lowest concentration with no visible growth; for MFC: aliquots plated on YPD agar, 24 h, lowest concentration with no colony growth
# Protocol: as §1, §3, §4
# [6] = test system: Candida albicans 190; assay: microbe, parasite or virus in culture; conditions: 37 °C; for MIC50 / MIC90: C. albicans 190 (fluconazole-resistant clinical isolate), RPMI 1640/MOPS pH 7.0, 24 h, triplicate; for MIC50: at least 50% growth inhibition vs growth control; for MIC90: lowest concentration with no visible growth
# Protocol: as §1, §3, §4
# [7] = test system: Candida glabrata DSM 6128; assay: microbe, parasite or virus in culture; conditions: C. glabrata DSM 6128, RPMI 1640/MOPS pH 7.0, 24 h, 37 °C, triplicate; for MIC50: at least 50% growth inhibition vs growth control; for MIC90: lowest concentration with no visible growth
# Protocol: as §1, §3, §4
# [8] = test system: Candida krusei DSM 11226; assay: microbe, parasite or virus in culture; conditions: C. krusei DSM 11226, 37 °C; for MIC50 / MIC90: RPMI 1640/MOPS pH 7.0, 24 h, triplicate; for MIC50: at least 50% growth inhibition vs growth control; for MIC90: lowest concentration with no visible growth; for MFC: aliquots plated on YPD agar, 24 h, lowest concentration with no colony growth
# Protocol: as §1, §3, §4
# [9] = MTT cytotoxicity assay; conditions: human
# Protocol: as §1, §2
# [10] = Hs27 cells, MTT, 72 h, 37 °C, 100–1.5 μM, biological triplicates
SMILES,"antifungal activity against the strains tested, in words [1]",MIC50 [3] [µM],MIC90 [3] [µM],MIC50 [4] [µM],MIC90 [4] [µM],MIC50 [5] [µM],MIC90 [5] [µM],MIC50 [6] [µM],MIC90 [6] [µM],MIC50 [7] [µM],MIC90 [7] [µM],MIC50 [8] [µM],MIC90 [8] [µM],"In vitro cytotoxicity IC90 ± SEM [2, 10] [µM]",MFC [5] [µM],MFC [8] [µM],IC50 at 72 h [9] [µM],other results
O=C(O)CCCC(=O)OC(Cn1cncn1)(Cn1cncn1)c1ccc(F)cc1F [FLCpOH],did not exert any antifungal activity,>250,>250,>250,>250,>250,>250,>250,>250,>250,>250,>250,>250,–,–,–,–,IC50 [2]: > 100 µM; In vitro cytotoxicity IC90 ± SEM [2]: >100 µM
CC[C@H](C)[C@H](NC(=O)[C@H](CCCCN)NC(=O)[C@H](CCCCN)NC(=O)[C@H](C)NC(=O)[C@H](CC(C)C)NC(=O)[C@H](C)NC(=O)[C@H](C)NC(=O)[C@H](CC(C)C)NC(=O)[C@H](C)NC(=O)[C@H](CCCCN)NC(=O)[C@H](CC(C)C)NC(=O)[C@H](CC(N)=O)NC(=O)[C@@H](NC(=O)[C@H](CCCCN)NC(=O)CNC(=O)[C@H](CC(C)C)NC(=O)[C@H](CC(C)C)NC(=O)[C@H](Cc1ccc(O)cc1)NC(=O)CNC(=O)[C@H](C)NC(=O)CCCC(=O)OC(Cn1cncn1)(Cn1cncn1)c1ccc(F)cc1F)[C@@H](C)CC)C(=O)N[C@@H](CC(C)C)C(N)=O [FLCpOH-TP10-NH2],–,45,62,31,62,8,15,45,62,62,125,62,125,28.81 ± 0.87,31,250,–,"MFC ([3]; C. albicans Gu4, aliquots plated on YPD agar, 24 h, lowest concentration with no colony growth): 62 µM; MFC ([4]; C. albicans B3, aliquots plated on YPD agar, 24 h, lowest concentration with no colony growth): 62 µM; MFC ([6]; C. albicans 190, aliquots plated on YPD agar, 24 h, lowest concentration with no colony growth): 250 µM"
CSCC[C@H](NC(=O)[C@H](CCCNC(=N)N)NC(=O)[C@H](Cc1c[nH]c2ccccc12)NC(=O)[C@H](CCC(N)=O)NC(=O)[C@H](Cc1c[nH]c2ccccc12)NC(=O)[C@H](CCCNC(=N)N)NC(=O)[C@H](CCCNC(=N)N)NC(=O)[C@H](CS)NC(=O)[C@H](CCCCN)NC(=O)[C@H](Cc1ccccc1)NC(=O)CCCC(=O)OC(Cn1cncn1)(Cn1cncn1)c1ccc(F)cc1F)C(N)=O [FLCpOH-LFacinB(2-11)-NH2] (X1-FKCRRWQWRM-NH2),moderately or poorly active,>250,>250,125,250,62,125,190,250,>250,>250,31,62,>100,250,125,> 100,–
"CCCC[C@H](NC(=O)CCCC(=O)OC(Cn1cncn1)(Cn1cncn1)c1ccc(F)cc1F)C(=O)N[C@@H](Cc1ccccc1)C(=O)N[C@@H](CCCCN)C(=O)N[C@@H](CS)C(=O)N[C@@H](CCCNC(=N)N)C(=O)N[C@@H](CCCNC(=N)N)C(=O)N[C@@H](Cc1c[nH]c2ccccc12)C(=O)N[C@@H](CCC(N)=O)C(=O)N[C@@H](Cc1c[nH]c2ccccc12)C(=O)N[C@@H](CCCNC(=N)N)C(=O)N[C@@H](CCCC)C(=O)N[C@@H](CCCCN)C(=O)N[C@@H](CCCCN)C(=O)N[C@@H](CC(C)C)C(=O)NCC(N)=O [FLCpOH-LFacinB[Nle^1,11]-NH2] (X1-[Nle]FKCRRWQWR[Nle]KKLG-NH2)",moderately or poorly active,125,250,45,62,23,31,90,125,250,>250,31,62,>100,250,–,> 100,–
